In patent US20240101540A1, “TARGETED PROTEIN DEGRADATION OF PARP14 FOR USE IN THERAPY” (Ribon Therapeutics, Inc., priority 2022, published 2024):
Entries after “also recorded” stand apart in the source; their conditions may differ. Where a name gives a salt, the structure may show the parent alone. Read-outs that look alike come from different tables or passages of the source.

Key:
[1] = test system: Alternaria asthma mouse model; assay: Alternaria asthma mouse model: cell counts and cytokines in BALF; assay type: in vivo; conditions: Alternaria-challenged male Balb/c mice, 30, 100, 300, 1000 mg/kg once daily for 7 days by oral gavage, vs vehicle control (P<0.05), dose-dependent starting from 100 mg/kg
Method: The effect of Compound 64 was studied in an Alternaria asthma mouse model. On days 1-5, male Balb/c mice under isoflurane anesthesia were challenged by instilling a solution of 5 μg (protein weight) Alternaria in 40 μL of PBS into each nostril. Sham-treated mice were administered 40 μL of PBS into each nostril. Compound 64 was administered two days prior to Alternaria challenge (defined day as day −1) and animals were treated with vehicle (0.5% methylcellulose+0.2% Tween 20) or Compound Y (30, 100, 300, 1000 mg/kg) once daily for 7 days (defined as day −1 to day 5) by oral gavage. Total and differential cell counts of the BALF fluid samples were measured using a XT-2000iV analyzer (Sysmex). Cytokine concentrations of BALF supernatant were measured in samples from all groups using ELISA kit (Biotechne, UK).
Statistical significance is calculated using one-way ANOVA followed by Dunnett's post-tests in which the treatment groups were compared to vehicle control (P<0.05).

[2] = molecular target: T1, catalytic domain of human PARP14 (residues 1611 to 1801) with NanoLuc tag (Homo sapiens, UniProt Q460N5); assay: NanoLuc assay for the degradation of PARP14 (NanoLuc-tagged PARP14 overexpressed in HEK-293T cells, 2 hours); assay type: cell-based; conditions: Assay A (Example A): NanoLuc-tagged PARP14 degradation in HEK-293T cells
T1 construct: expressed in transfected cells; host or cells: HEK-293T cells (ATCC), pcDNA3.1(-) vector
T1 sequence (Q460N5 1611-1801): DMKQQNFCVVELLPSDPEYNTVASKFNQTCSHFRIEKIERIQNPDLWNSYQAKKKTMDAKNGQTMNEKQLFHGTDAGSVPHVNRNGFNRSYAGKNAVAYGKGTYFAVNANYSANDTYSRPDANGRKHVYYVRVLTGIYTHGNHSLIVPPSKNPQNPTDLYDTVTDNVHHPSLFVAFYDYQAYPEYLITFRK

| SMILES | DC50 ([2]; read-out: DC50) | further results |
| --- | --- | --- |
| O=C1CCC(Nc2ccc(N3CCN(CCN4CCC(COc5cc(F)c6c(=O)[nH]c(CSC7CCOCC7)nc6c5)CC4)CC3)c(F)c2)C(=O)N1 (racemic) [Example 64, 3-((3-fluoro-4-(4-(2-(4-(((5-fluoro-4-oxo-2-(((tetrahydro-2H-pyran-4-yl)thio)methyl)-3,4-dihydroquinazolin-7-yl)oxy)methyl)piperidin-1-yl)ethyl)piperazin-1-yl)phenyl)amino)piperidine-2,6-dione] | < 100 nM | cytokine IL-4 in BALF ([1]; ELISA of BALF supernatant): significantly reduces; cytokine IL-5 in BALF ([1]; ELISA of BALF supernatant): significantly reduces; cytokine IL-33 in BALF ([1]; ELISA of BALF supernatant): significantly reduces; eosinophils in BALF [1]: significantly reduces; total cell counts in BALF (Alternaria-induced cell infiltration) [1]: significantly reduces; also recorded: dose-dependent reduction |
| O=C1CCC(Nc2ccc(OC3CC(N4CCC(COc5cc(F)c6c(=O)[nH]c(CSC7CCOCC7)nc6c5)CC4)C3)cc2)C(=O)N1 (stereo not drawn) [Example 81, 3-((4-(3-(4-(((5-fluoro-4-oxo-2-(((tetrahydro-2H-pyran-4-yl)thio)methyl)-3,4-dihydroquinazolin-7-yl)oxy)methyl)piperidin-1-yl)cyclobutoxy)phenyl)amino)piperidine-2,6-dione] | < 100 nM | – |
| O=C1CCC(Nc2ccc(N3CCN(CCN4CCC(COc5cc(F)c6c(=O)[nH]c(CCC7CCOCC7)nc6c5)CC4)CC3)cc2)C(=O)N1 (stereo not drawn) [Example 82, 3-((4-(4-(2-(4-(((5-fluoro-4-oxo-2-(2-(tetrahydro-2H-pyran-4-yl)ethyl)-3,4-dihydroquinazolin-7-yl)oxy)methyl)piperidin-1-yl)ethyl)piperazin-1-yl)phenyl)amino)piperidine-2,6-dione] | – | DC50 [2]: < 100 nM |
| O=C1CCC(Nc2ccc(N3CCN(CCN4CCC(COc5cc(F)c6c(=O)[nH]c(CS[C@H]7CC[C@H](O)CC7)nc6c5)CC4)CC3)cc2)C(=O)N1 (stereo partly drawn) [Example 83, 3-((4-(4-(2-(4-(((5-fluoro-2-((((1r,4r)-4-hydroxycyclohexyl)thio)methyl)-4-oxo-3,4-dihydroquinazolin-7-yl)oxy)methyl)piperidin-1-yl)ethyl)piperazin-1-yl)phenyl)amino)piperidine-2,6-dione] | < 100 nM | – |
| O=C1CCC(Nc2ccc(CN3CCC(N4CCC(COc5cc(F)c6c(=O)[nH]c(CSC7CCOCC7)nc6c5)CC4)CC3)cc2)C(=O)N1 (stereo not drawn) [Example 84, 3-((4-((4-(((5-fluoro-4-oxo-2-(((tetrahydro-2H-pyran-4-yl)thio)methyl)-3,4-dihydroquinazolin-7-yl)oxy)methyl)-[1,4′-bipiperidin]-1′-yl)methyl)phenyl)amino)piperidine-2,6-dione] | < 100 nM | – |
| O=C1CCC(N2C(=O)c3ccc(N4CCC(N5CCN(Cc6cc(F)c7c(=O)[nH]c(CSC8CCOCC8)nc7c6)CC5)CC4)cc3C2=O)C(=O)N1 (stereo not drawn) [Example 85, 2-(2,6-dioxopiperidin-3-yl)-5-(4-(4-((5-fluoro-4-oxo-2-(((tetrahydro-2H-pyran-4-yl)thio)methyl)-3,4-dihydroquinazolin-7-yl)methyl)piperazin-1-yl)piperidin-1-yl)isoindoline-1,3-dione] | < 100 nM | – |
| O=C1CCC(Nc2ccc(N3CCC(N4CCN(CCc5cc(F)c6c(=O)[nH]c(CSC7CCOCC7)nc6c5)CC4)CC3)cc2)C(=O)N1 (stereo not drawn) [Example 86, 3-((4-(4-(4-(2-(5-fluoro-4-oxo-2-(((tetrahydro-2H-pyran-4-yl)thio)methyl)-3,4-dihydroquinazolin-7-yl)ethyl)piperazin-1-yl)piperidin-1-yl)phenyl)amino)piperidine-2,6-dione] | < 100 nM | – |
| O=C1CCC(Nc2ccc(OC3CCN(C4CCC(COc5cc(F)c6c(=O)[nH]c(CSC7CCOCC7)nc6c5)CC4)CC3)cc2)C(=O)N1 (stereo not drawn) [Example 87, 3-((4-((1-(4-(((5-fluoro-4-oxo-2-(((tetrahydro-2H-pyran-4-yl)thio)methyl)-3,4-dihydroquinazolin-7-yl)oxy)methyl)cyclohexyl)piperidin-4-yl)oxy)phenyl)amino)piperidine-2,6-dione] | < 100 nM | – |
| O=C1CCC(Nc2ccc(N3CCC(N4CC(N5CCC(COc6cc(F)c7c(=O)[nH]c(CSC8CCOCC8)nc7c6)CC5)C4)CC3)cc2)C(=O)N1 (stereo not drawn) [Example 88, 3-((4-(4-(3-(4-(((5-fluoro-4-oxo-2-(((tetrahydro-2H-pyran-4-yl)thio)methyl)-3,4-dihydroquinazolin-7-yl)oxy)methyl)piperidin-1I-yl)azetidin-1-yl)piperidin-1-yl)phenyl)amino)piperidine-2,6-dione] | < 100 nM | – |
| O=C1CCC(Nc2ccc(N3CCC(N4CCC(COc5cc(F)c6c(=O)[nH]c(CSC7CCN(CC(F)(F)F)CC7)nc6c5)CC4)CC3)cc2)C(=O)N1 (stereo not drawn) [Example 89, 3-((4-(4-(((5-fluoro-4-oxo-2-(((1-(2,2,2-trifluoroethyl)piperidin-4-yl)thio)methyl)-3,4-dihydroquinazolin-7-yl)oxy)methyl)-[1,4′-bipiperidin]-1′-yl)phenyl)amino)piperidine-2,6-dione] | < 100 nM | – |
| O=C1CCC(Nc2ccc(OC3CC(CN4CCC(COc5cc(F)c6c(=O)[nH]c(CS[C@H]7CC[C@H](O)CC7)nc6c5)CC4)C3)cc2)C(=O)N1 (stereo partly drawn) [Example 90, 3-((4-(3-((4-(((5-fluoro-2-((((1r,4r)-4-hydroxycyclohexyl)thio)methyl)-4-oxo-3,4-dihydroquinazolin-7-yl)oxy)methyl)piperidin-1-yl)methyl)cyclobutoxy)phenyl)amino)piperidine-2,6-dione formate] | < 100 nM | – |
| O=C1CCC(Nc2ccc(NC3CCN(CCN4CCC(COc5cc(F)c6c(=O)[nH]c(CSC7CCOCC7)nc6c5)CC4)CC3)cc2)C(=O)N1 (stereo not drawn) [Example 94, 3-((4-((1-(2-(4-(((5-fluoro-4-oxo-2-(((tetrahydro-2H-pyran-4-yl)thio)methyl)-3,4-dihydroquinazolin-7-yl)oxy)methyl)piperidin-1-yl)ethyl)piperidin-4-yl)amino)phenyl)amino)piperidine-2,6-dione] | < 100 nM | – |
| O=C1CCC(Nc2ccc(N3CC4CCC(C3)N4CCN3CCC(COc4cc(F)c5c(=O)[nH]c(CSC6CCOCC6)nc5c4)CC3)cc2)C(=O)N1 (stereo not drawn) [Example 95, 3-((4-(8-(2-(4-(((5-fluoro-4-oxo-2-(((tetrahydro-2H-pyran-4-yl)thio)methyl)-3,4-dihydroquinazolin-7-yl)oxy)methyl)piperidin-1-yl)ethyl)-3,8-diazabicyclo[3.2.1]octan-3-yl)phenyl)amino)piperidine-2,6-dione] | < 100 nM | – |
| O=C1CCC(Nc2ccc(N3CCN(CCN4CCC(COc5cc(F)c6c(=O)[nH]c(CC7CCCC7)nc6c5)CC4)CC3)cc2)C(=O)N1 (stereo not drawn) [Example 96, 3-((4-(4-(2-(4-(((2-(cyclopentylmethyl)-5-fluoro-4-oxo-3,4-dihydroquinazolin-7-yl)oxy)methyl)piperidin-1-yl)ethyl)piperazin-1-yl)phenyl)amino)piperidine-2,6-dione] | < 100 nM | – |
| O=C1CCC(Nc2ccc(OC3CC(CN4CCC(COc5cc(F)c6c(=O)[nH]c(CSC7CCN(CC(F)(F)F)CC7)nc6c5)CC4)C3)cc2)C(=O)N1 (stereo not drawn) [Example 109] | < 100 nM | – |
| O=C1CCC(Nc2ccc(N3C4CCC3CN(CCN3CCC(COc5cc(F)c6c(=O)[nH]c(CSC7CCOCC7)nc6c5)CC3)C4)cc2)C(=O)N1 (stereo not drawn) [Example 121] | < 100 nM | – |
| O=C1CCC(Nc2ccc(N3CCN(CCN4CCC(COc5cc(F)c6c(=O)[nH]c(CSC7CCOCC7)nc6c5)CC4)CC3C(F)(F)F)cc2)C(=O)N1 (stereo not drawn) [Example 122] | < 100 nM | – |
| CN(c1ccc(NC2CCC(=O)NC2=O)cc1)C1CCN(CCN2CCC(COc3cc(F)c4c(=O)[nH]c(CSC5CCOCC5)nc4c3)CC2)CC1 (stereo not drawn) [Example 123] | < 100 nM | – |
| O=C1CCC(Nc2ccc(N3CCN(C4CCC(COc5cc(F)c6c(=O)[nH]c(CSC7CCOCC7)nc6c5)CC4)CC3)cc2)C(=O)N1 (stereo not drawn) [Example 124] | < 100 nM | – |
